Source: patent US10576084B2, “Salt of fused heterocyclic derivative and crystal thereof” (KISSEI PHARMACEUTICAL CO., LTD., priority 2010, dated 2020)
Where a name gives a salt, the structure may show the parent alone.

What was measured:
[1] = type: physicochemical; conditions: for saturation solubility in 1st fluid: pH 1.2; for saturation solubility in 2nd fluid: pH 6.8
Procedure: Saturation Solubility Test
The compound (A) obtained in Example 2, the compound (B) crystals obtained in Comparative Example 2, and the compound (C) obtained in Comparative Example 3 were suspended in water, or in 1st fluid for dissolution test (hereinafter, referred to as “1st fluid”) or 2nd fluid (hereinafter, referred to as “2nd fluid”) described in the Reagents·Test Solutions for General Tests, the Japanese Pharmacopoeia, 15th Edition. The suspensions were incubated at 37° C. After filtering a part of the suspensions, the concentrations of the resulting filtrates were measured by HPLC, and the saturation solubilities were calculated and compared. The HPLC measurement conditions are as follows.
• Detector: Ultraviolet and visible spectrophotometer /wavelength: 225 nm • Column: GL Science Inertsil ODS-3,5 μm, 4.6×250 mm • Column temperature: a constant temperature of around 35° C. • Flow rate: 1.0 mL/min • Mobile phase A: 10 mM potassium dihydrogen phosphate aqueous solution adjusted to pH 5.5 with potassium hydroxide aqueous solution • Mobile phase B: Acetonitrile • Mobile phase ratio 0 to 30 min: mobile phase A/mobile phase B=70/30
The saturation solubility values of compound (A), compound (B) crystals, and compound (C) in water, 1st fluid, and 2nd fluid are shown in Table 2. […] The saturation solubility of compound (A) in 1st fluid was about 30 times and about 2 times higher than those of compound (B) crystals and compound (C), respectively. In 2nd fluid, the saturation solubility of compound (A) was about 10 times and about 70 times higher than those of compound (B) crystals and compound (C), respectively.

in vivo = experiment: in vivo; set-up: species or system SD rats; conditions: male, SD, rat; for maximum drug concentration time (Tmax): po, 3 mg/kg
Procedure: Assay for Oral Absorbability
1) Preparation of Sample for Drug Concentration Measurement by Administration through Tail Vein
SD rats (Charles River, male, 7 weeks of age, 170 to 210 g) were used as experimental animals after fasting the rats overnight. N,N-dimethylacetamide (0.2 mL), saline (0.798 mL) and 2N-NaOH (0.002 mL) were added in these amounts with respect to 1 mg of the compound (B) to prepare a 1.0 mg/mL solution. The solution was then administered in a 1 mL/kg dose (1 mg/kg) through the tail vein under no anesthesia (3 samples). The intravenous administration through tail was performed using a 26G injection needle and a 1 mL syringe. Blood was collected through the subclavian veins after 2, 15, 60, 120, 240 and 360 minutes from the intravenous administration through tail. The blood was centrifuged, and the plasma was used as a sample for blood drug concentration measurement.
2) Preparation of Sample for Drug Concentration Measurement by Oral Administration
SD rats (Charles River, male, 7 weeks of age, 220 to 290 g) were used as experimental animals after fasting the rats overnight. A 0.5% methylcellulose aqueous solution (5 mL) was added with respect to 3 mg of compound (A) or compound (B) (in terms of a free compound) to prepare a 0.6 mg/mL drug solution. Each solution was orally administered to the rats in a 5 mL/kg dose (3 mg/kg) (3 samples each). The oral administration was performed using a rat sonde and a 2.5-mL syringe. […]
A suitable internal standard substance solution (0.1 mL) was added to the blood plasma (0.025 mL) obtained in 1) and 2) using an ordinary method. […] Blood plasma drug concentration was measured using the LC-MS/MS technique under the conditions below. […]
Bioavailability (%) was calculated from the value of the area under the blood drug concentration-time curve determined by using a WinNonlin Professional (Pharsight Corporation) from the blood drug concentration at each time point obtained as above after the intravenous administration of the compound (B) through tail and the oral administration of the compound (A) or the compound (B).

[2] = Stability test (storage under 90° C. open conditions, purity by HPLC); type: physicochemical
Procedure: Stability Test The compound (A) obtained in Example 2 was stored under 90° C. open conditions to examine stability. In stability measurement, the purity of a sample was measured by HPLC at the initial point and after 8 days, and the results were compared. The HPLC measurement conditions are as follows. Measurement Conditions • Detector: Ultraviolet and visible spectrophotometer/wavelength: 225 nm • Column: GL Science Inertsil ODS-3,5 μm, 4.6×250 mm • Column temperature: Constant temperature around 35° C. • Flow rate: 1.0 mL/min • Mobile phase A: 10 mM potassium dihydrogen phosphate aqueous solution adjusted to pH 5.5 with potassium hydroxide aqueous solution • Mobile phase B: Acetonitrile • (Mobile phase ratios are shown in Table 4) • Area measurement range: 54 minutes from the start of the analysis. Areas of the peaks in the blank were excluded from the calculations.

SMILES | saturation solubility in water [1] [µg/mL] | saturation solubility in 1st fluid [1] [µg/mL] | saturation solubility in 2nd fluid [1] [µg/mL] | maximum drug concentration time (Tmax) (in vivo) [h] | bioavailability (in vivo) [%] | Purity (%) after 8 days ([2]; after 8 days under 90° C. open conditions) [%] | Purity (%) at initial point ([2]; initial point, before storage) [%]
COc1cc(F)c(-n2c(=O)[nH]c3csc(C(=O)O)c3c2=O)cc1OCc1c(OC)ccc(F)c1F (single isomer, unassigned) [compound (B), 3-[2-fluoro-5-(2,3-difluoro-6-methoxybenzyloxy)-4-methoxyphenyl]-2,4-dioxo-1,2,3,4-tetrahydrothieno[3,4-d]pyrimidine-5-carboxylic acid, reference compound] | 7 | 0.14 | 367 | 3.33 |  |  | 
COc1cc(F)c(-n2c(=O)[nH]c3csc(C(=O)O)c3c2=O)cc1OCc1c(OC)ccc(F)c1F (single isomer, unassigned) [compound (A), 3-[2-fluoro-5-(2,3-difluoro-6-methoxybenzyloxy)-4-methoxyphenyl]-2,4-dioxo-1,2,3,4-tetrahydrothieno[3,4-d]pyrimidine-5-carboxylic acid choline salt] | 4165 | 4 | 3738 | 0.583 | ~59 | 99.6 | 99.6
COc1cc(F)c(-n2c(=O)[nH]c3csc(C(=O)O)c3c2=O)cc1OCc1c(OC)ccc(F)c1F.COc1cc(F)c(-n2c(=O)[nH]c3csc(C(=O)O)c3c2=O)cc1OCc1c(OC)ccc(F)c1F.c1ccc(CNCCNCc2ccccc2)cc1 [compound (C), 3-[2-Fluoro-5-(2,3-difluoro-6-methoxybenzyloxy)-4-methoxyphenyl]-2,4-dioxo-1,2,3,4-tetrahydrothieno[3,4-d]pyrimidine-5-carboxylic acid.1/2N,N′-dibenzylethylenediamine salt, reference compound] | 68 | 2 | 52 |  |  |  | 
